Reference: patent US8455485B2, “Pyrazolo pyridine derivatives as NADPH oxidase inhibitors” (Genkyotex SA, priority 2008, dated 2013)

Tested on: NOX activity
Assay: Amplex Red measurement of extracellular hydrogen peroxide (NOX activity) using DMSO-differentiated HL60 cells
Format: cell-based, human
Details: Amplex red, DMSO-differentiated HL60 cells; compound concentration not stated
Protocol: Human acute myeloid leukemia cell line HL-60 was cultured in RPMI 1640 (Invitrogen) supplemented with 10% heat-inactivated calf serum, 2 mM glutamine, 100 U/mL penicillin (Sigma), and 100 μg streptomycin (Sigma) at 37° C. under a humidified atmosphere of 5% CO2. HL60 differentiation to the neutrophil phenotype was triggered by adding Me2SO (final concentration 1.25% v/v for 6 days) to the culture medium.
Extracellular hydrogen peroxide was measured using Amplex UltraRed (Molecular Probes). Cells were trypsinized (1× Trypsin-EDTA), collected by centrifugation, and resuspended in HBSS supplemented with 1% glucose. Cells were seeded into black 96-well plates at a density of 50′000 cells in 200 μl testing buffer (HBSS 1% glucose containing 0.005 U/mL horseradish peroxidase (Roche) and 50 μM Amplex Red in the presence or absence of compounds according to the invention. As a control, DPI was included at a final concentration of 10 μM The plates were placed in the fluorescent Optima Fluorescent plate reader and kept at 37° C. during 20 min Fluorescence was measured for […] with excitation and emission wavelengths of 544 nm and 590 nm respectively. NOX activities were expressed as % of the activity in control cells. Residual activity of DPI-treated cells was usually <10%.
The Table 2 below summarizes the percentage of inhibition of NOX activity as measured by Amplex red using DMSO-differentiated HL60 cells as described above: […]

Cn1c(COCc2cccc(Cl)c2)c2c(=O)n(-c3ccccc3Cl)[nH]c2cc1=O [Compound 139, 4-{[(3-chlorobenzyl)oxy]methyl}-2-(2-chlorophenyl)-5-methyl-1H-pyrazolo[4,3-c] pyridine-3,6(2H,5H)-dione]
Inhibition (%) of NOX activity: 76%

COc1cccc(N2CCN(Cc3c4c(=O)n(-c5ccccc5Cl)[nH]c4cc(=O)n3C)CC2)c1 [Compound 163, 2-(2-chlorophenyl)-4-{[4-(3-methoxyphenyl)piperazin-1-yl]methyl}-5-methyl-1H-pyrazolo[4,3-c]pyridine-3,6(2H,5H)-dione]
Inhibition (%) of NOX activity: 80%

CN1CCC(Cn2c(COCc3ccccc3)c3c(=O)n(-c4ccccc4Cl)[nH]c3cc2=O)CC1 [Compound 106, 4-[(benzyloxy)methyl]-2-(2-chlorophenyl)-5-[(1-methylpiperidin-4-yl)methyl]-1H-pyrazolo [4,3-c]pyridine-3,6(2H,5H)-dione]
Inhibition (%) of NOX activity: 81%

CCCCc1c2c(=O)n(-c3ccc(F)cc3Cl)[nH]c2cc(=O)n1Cc1ccco1 [Compound 7, 4-butyl-2-(2-chloro-4-fluorophenyl)-5-(furan-2-ylmethyl)-1H-pyrazolo[4,3-c]pyridine-3,6(2H,5H)-dione]
Inhibition (%) of NOX activity: 91%

COCc1c2c(=O)n(-c3cccc(Cl)c3)[nH]c2cc(=O)n1Cc1ccccn1 [Compound 23, 2-(3-chlorophenyl)-4-(methoxymethyl)-5-(pyridin-2-ylmethyl)-1H-pyrazolo[4,3-c]pyridine-3,6(2H,5H)-dione]
Inhibition (%) of NOX activity: 89%

CCCCc1c2c(=O)n(-c3ccc(F)cc3Cl)[nH]c2cc(=O)n1Cc1ccccc1CN1CCOCC1 [Compound 14, 4-butyl-2-(2-chloro-4-fluorophenyl)-5-[2-(morpholin-4-ylmethyl)benzyl]-1H-pyrazolo[4,3-c]pyridine-3,6(2H,5H)-dione]
Inhibition (%) of NOX activity: 86%

Cn1[nH]c2cc(=O)n(Cc3ccccn3)c(COCc3ccccc3)c2c1=O [Compound 63, 4-[(benzyloxy)methyl]-2-methyl-5-(pyridin-2-ylmethyl)-1H-pyrazolo [4,3-c]pyridine-3,6 (2H,5H)-dione]
Inhibition (%) of NOX activity: 89%

CN(CCCc1c2c(=O)n(-c3ccccc3Cl)[nH]c2cc(=O)n1C)c1ccccc1 [Compound 120, 2-(2-chlorophenyl)-5-methyl-4-{3-[methyl (phenyl)amino]propyl}-1H-pyrazolo[4,3-c] pyridine-3,6(2H,5H)-dione]
Inhibition (%) of NOX activity: 77%

Cn1c(COC(c2ccccc2)C(F)(F)F)c2c(=O)n(-c3ccccc3Cl)[nH]c2cc1=O (centres unmarked) [Compound 108, 2-(2-chlorophenyl)-5-methyl-4-[(2,2,2-trifluoro-1-phenylethoxy)methyl]-1H-pyrazolo[4,3-c] pyridine-3,6(2H,5H)-dione]
Inhibition (%) of NOX activity: 75%

Cn1c(COc2ccc(Cl)cc2)c2c(=O)n(-c3ccccc3Cl)[nH]c2cc1=O [Compound 92, 4-[(4-chlorophenoxy)methyl]-2-(2-chlorophenyl)-5-methyl-1H-pyrazolo[4,3-c] pyridine-3,6(2H,5H)-dione]
Inhibition (%) of NOX activity: 76%

O=c1c2c(CN3CCOCC3)n(Cc3ccccc3)c(=O)cc2[nH]n1-c1ccccc1Cl [Compound 1, 5-benzyl-2-(2-chlorophenyl)-4-(morpholin-4-ylmethyl)-1H-pyrazolo[4,3-c]pyridine-3,6(2H,5H)-dione]
Inhibition (%) of NOX activity: 80%

CN(Cc1cccnc1)Cc1c2c(=O)n(-c3ccccc3Cl)[nH]c2cc(=O)n1C [Compound 147, 2-(2-chlorophenyl)-5-methyl-4-{[methyl (pyridin-3-ylmethyl)amino]methyl}-1H-pyrazolo[4,3-c] pyridine-3,6(2H,5H)-dione]
Inhibition (%) of NOX activity: 80%

COCCCn1c(CN(C)Cc2ccccc2)c2c(=O)n(-c3ccc(F)cc3Cl)[nH]c2cc1=O [Compound 12, 4-{[benzyl(methyl)amino]methyl}-2-(2-chloro-4-fluorophenyl)-5-(3-methoxypropyl)-1H-pyrazolo[4,3-c]pyridine-3,6(2H,5H)-dione]
Inhibition (%) of NOX activity: 79%

CC(=O)Nc1cccc(Cn2c(CN3CCCC3)c3c(=O)n(-c4ccc(OCc5ccccc5)cc4)[nH]c3cc2=O)c1 [Compound 53, N-[3-({2-[4-(benzyloxy)phenyl]-3,6-dioxo-4-(pyrrolidin-1-ylmethyl)-1,2,3,6-tetrahydro-5H-pyrazolo[4,3-c]pyridin-5-yl}methyl)phenyl] acetamide]
Inhibition (%) of NOX activity: 86%

CCCCc1c2c(=O)n(-c3ccc(F)cc3Cl)[nH]c2cc(=O)n1CCOC [Compound 9, 4-butyl-2-(2-chloro-4-fluorophenyl)-5-(2-methoxyethyl)-1H-pyrazolo[4,3-c]pyridine-3,6(2H,5H)-dione]
Inhibition (%) of NOX activity: 76%

Cn1[nH]c2cc(=O)n(Cc3ccccn3)c(CCCOc3ccccc3)c2c1=O [Compound 30, 2-methyl-4-(3-phenoxypropyl)-5-(pyridin-2-ylmethyl)-1H-pyrazolo [4,3-c]pyridine-3,6(2H,5H)-dione]
Inhibition (%) of NOX activity: 92%

CN(Cc1c2c(=O)n(-c3ccccc3Cl)[nH]c2cc(=O)n1CCc1ccccn1)c1ccccc1 [Compound 93, 2-(2-chlorophenyl)-4-{[methyl(phenyl)amino]methyl}-5-(2-pyri-din-2-ylethyl)-1H-pyrazolo[4,3-c] pyridine-3,6(2H,5H)-dione]
Inhibition (%) of NOX activity: 80%

CCCCc1c2c(=O)n(-c3ccc(OCc4ccccc4)cc3)[nH]c2cc(=O)n1Cc1ccc(Cl)cc1 [Compound 4, 2-[4-(benzyloxy)phenyl]-4-butyl-5-(4-chlorobenzyl)-1H-pyrazolo[4,3-c]pyridine-3,6(2H,5H)-dione]
Inhibition (%) of NOX activity: 69%

COCCn1c(COc2ccc(F)cc2)c2c(=O)n(-c3ccccc3Cl)[nH]c2cc1=O [Compound 58, 2-(2-chlorophenyl)-4-[(4-fluorophenoxy)methyl]-5-(2-methoxyethyl)-1H-pyrazolo[4,3-c]pyridine-3,6(2H,5H)-dione]
Inhibition (%) of NOX activity: 80%

Cn1c(C2CN(Cc3ccccc3)CCO2)c2c(=O)n(-c3ccccc3Cl)[nH]c2cc1=O (centres unmarked) [Compound 84, 4-(4-benzylmorpholin-2-yl)-2-(2-chloro-phenyl)-5-methyl-1H-pyrazolo [4,3-c]pyridine-3,6 (2H,5H)-dione]
Inhibition (%) of NOX activity: 78%

Cn1[nH]c2cc(=O)n(Cc3cccc(N4CCOCC4)n3)c(COc3ccc(F)cc3)c2c1=O [Compound 65, 4-[(4-fluorophenoxy)methyl]-2-methyl-5-[(6-morpholin-4-ylpyridin-2-yl)methyl]-1H-pyrazolo[4,3-c] pyridine-3,6(2H,5H)-dione]
Inhibition (%) of NOX activity: 80%

CC(C)(C)OC(=O)N1CCC(Cn2c(COCc3ccccc3)c3c(=O)n(-c4ccccc4Cl)[nH]c3cc2=O)CC1 [Compound 100, tert-butyl 4-({4-[(benzyloxy)methyl]-2-(2-chlorophenyl)-3,6-dioxo-1,2,3,6-tetrahydro-5H-pyrazolo[4,3-c]pyri-din-5-yl}methyl)pipe-ridine-1-carboxylate]
Inhibition (%) of NOX activity: 78%

COc1cccc(CN(C)Cc2c3c(=O)n(-c4ccccc4Cl)[nH]c3cc(=O)n2C)c1 [Compound 143, 2-(2-chlorophenyl)-4-{[(3-methoxybenzyl) (methyl)amino]methyl}-5-methyl-1H-pyrazolo [4,3-c]pyridine-3,6 (2H,5H)-dione]
Inhibition (%) of NOX activity: 82%

CN(C)C(=O)Cn1c(COCc2ccccc2)c2c(=O)n(-c3ccccc3Cl)[nH]c2cc1=O [Compound 116, 2-{4-[(benzyloxy)methyl]-2-(2-chlorophenyl)-3,6-dioxo-1,2,3,6-tetrahydro-5H-pyrazolo[4,3-c]pyridin-5-yl)-N,N dimethyl acetamide]
Inhibition (%) of NOX activity: 81%

O=c1c2c(COCc3ccccc3)n(CC3CCCNC3)c(=O)cc2[nH]n1-c1ccccc1Cl (centres unmarked) [Compound 130, 4-[(benzyloxy)methyl]-2-(2-chlorophenyl)-5-(piperidin-3-ylmethyl)-1H-pyrazolo[4,3-c] pyridine-3,6(2H,5H)-dione]
Inhibition (%) of NOX activity: 80%

Cn1[nH]c2cc(=O)n(Cc3ccc(Cl)cc3)c(CN3CCCC3)c2c1=O [Compound 52, 5-(4-chlorobenzyl)-2-methyl-4-(pyrrolidin-1-ylmethyl)-1H-pyrazolo[4,3-c]pyridine-3,6(2H,5H)-dione]
Inhibition (%) of NOX activity: 90%

O=c1c2c(COCc3ccccc3)n(Cc3cnccn3)c(=O)cc2[nH]n1-c1ccccc1Cl [Compound 113, 4-[(benzyloxy)methyl]-2-(2-chlorophenyl)-5-(pyrazin-2-yl-methyl)-1H-pyrazolo[4,3-c]pyridine-3,6(2H,5H)-dione]
Inhibition (%) of NOX activity: 87%

CCCCc1c2c(=O)n(-c3ccc(OCc4ccccc4)cc3)[nH]c2cc(=O)n1C [Compound 5, 2-[4-(benzyloxy)phenyl]-4-butyl-5-methyl-1H-pyrazolo[4,3-c]pyridine-3,6(2H,5H)-dione]
Inhibition (%) of NOX activity: 94%

COCCn1c(CN2CCCC2)c2c(=O)n(Cc3ccccc3)[nH]c2cc1=O [Compound 31, 2-benzyl-5-(2-methoxyethyl)-4-(pyrrolidin-1-ylmethyl)-1H-pyrazolo [4,3-c]pyridine-3,6(2H,5H)-dione]
Inhibition (%) of NOX activity: 82%
